≈ marks a conversion by molar mass, not a printed value. Calls of active or inactive are those of the source. The calls are words filed in the database; no cut-off is given here.
Tests used:
Haemophilus influenzae [1] = experiment: Antibacterial activity against Haemophilus influenzae; format: functional
Streptococcus pneumoniae [2] = experiment: Antibacterial activity against Streptococcus pneumoniae in presence of 250 ug/ml thymidine; format: functional
Staphylococcus aureus [3] = experiment: Antibacterial activity against trimethoprim-sensitive Staphylococcus aureus ATCC 29213 infected in NMRI mouse model of septicemia assessed as succumbed to infections at 1.6 mg/kg, iv; format: functional, organism-based; design: dose 1.6 mg/kg
[4] = Tmax in NMRI mouse blood at 25 mg/kg administered through oral gavage measured after 7 hrs; format: ADME, organism-based; design: dose 25 mg/kg, route oral
Staphylococcus aureus [5] = experiment: Antibacterial activity against methicillin-sensitive dfrB-positive abd dfrA, dfrG-negative Staphylococcus aureus; format: functional
Mus musculus [6] = experiment: Hepatotoxicity in NMRI mouse assessed as increase in liver weight at 400 mg/kg administered through oral gavage for 5 days; format: toxicity, organism-based; design: dose 400 mg/kg, route oral; conditions: in vivo, 120 h
Streptococcus pneumoniae [7] = experiment: Antibacterial activity against Streptococcus pneumoniae in presence of 50 ug/ml thymidine; format: functional
Streptococcus pneumoniae [8] = experiment: Antibacterial activity against Streptococcus pneumoniae
Staphylococcus aureus [9] = experiment: Antibacterial activity against trimethoprim-sensitive Staphylococcus aureus ATCC 29213 infected in NMRI mouse model of septicemia; format: functional
[10] = test system: Staphylococcus epidermidis; experiment: Antibacterial activity against methicillin-resistant dfrC, dfrA-positive and dfrA within SCCmec-N1, dfrD-negative Staphylococcus epidermidis; format: functional
[11] = test system: Staphylococcus epidermidis; experiment: Antibacterial activity against methicillin-sensitive dfrA, dfrD-negative Staphylococcus epidermidis harboring F98Y mutation in dfrC gene; format: functional
Dihydrofolate reductase = Dihydrofolate reductase (Staphylococcus aureus, UniProt P0A017, F99Y); experiment: Inhibition of trimethoprim-resistant Staphylococcus aureus DfrB type dihydrofolate reductase F98Y mutant
Enterococcus faecium [12] = experiment: Antibacterial activity against vancomycin-resistant dfrE-negative and folA, dfrF-positive Enterococcus faecium; format: functional
Staphylococcus aureus [13] = experiment: Antibacterial activity against methicillin-resistant dfrA within SCCmec-N1, dfrA and dfrG -negative Staphylococcus aureus harboring F98Y mutation in dfrB gene; format: functional
Staphylococcus aureus [14] = experiment: Antibacterial activity against vancomycin, trimethoprim, methicillin-resistant Staphylococcus aureus VRS1 harboring dfrA and dfrB genes; format: functional
Haemophilus influenzae [15] = experiment: Antibacterial activity against Haemophilus influenzae in presence of 50 ug/ml thymidine
Mus musculus [16] = experiment: Toxicity in po dosed NMRI mouse; format: organism-based; conditions: in vivo
Enterococcus faecium [17] = experiment: Antibacterial activity against Enterococcus faecium in presence of 250 ug/ml thymidine; format: functional
Mycobacterium avium = experiment: Antibacterial activity against Mycobacterium avium assessed as inhibition of bacterial growth at <=4 ug/ml; format: functional; design: scale not given: the % may be the effect or the level left
[18] = test system: Staphylococcus epidermidis; experiment: Antibacterial activity against methicillin-sensitive dfrC-positive and dfrA, dfrD-negative Staphylococcus epidermidis; format: functional
HeLa = experiment: Cytotoxicity against human HeLa cells; format: cell-based
Staphylococcus aureus [19] = experiment: Antibacterial activity against methicillin, vancomycin, trimethoprim-sensitive Staphylococcus aureus ATCC 29213 harboring dfrB gene; format: functional
Staphylococcus aureus [20] = experiment: Antibacterial activity against vancomycin, trimethoprim-sensitive and methicillin-resistant Staphylococcus aureus ATCC 43300 harboring dfrB gene; format: functional
Enterococcus faecalis [21] = experiment: Antibacterial activity against Enterococcus faecalis in presence of 250 ug/ml thymidine; format: functional
[22] = test system: Staphylococcus epidermidis; experiment: Antibacterial activity against methicillin, vancomycin, trimethoprim-sensitive Staphylococcus epidermidis ATCC 14990 harboring dfrC gene; format: functional
Enterococcus faecium [23] = experiment: Antibacterial activity against vancomycin-resistant dfrE, dfrF-negative and folA-positive Enterococcus faecium; format: functional
[24] = Cmax in NMRI mouse blood at 25 mg/kg administered through oral gavage measured after 7 hrs; format: ADME, organism-based; design: dose 25 mg/kg, route oral
Enterococcus faecalis [25] = experiment: Antibacterial activity against Enterococcus faecalis; format: functional
Staphylococcus aureus [26] = experiment: Antibacterial activity against trimethoprim-sensitive Staphylococcus aureus ATCC 29213; format: functional
Haemophilus influenzae [27] = experiment: Antibacterial activity against Haemophilus influenzae in presence of 250 ug/ml thymidine; format: functional
[28] = test system: Staphylococcus epidermidis; experiment: Antibacterial activity against methicillin-sensitive dfrA-positive and dfrD-negative Staphylococcus epidermidis harboring F98Y mutation in dfrC gene; format: functional
[29] = test system: Staphylococcus epidermidis; experiment: Antibacterial activity against methicillin, vancomycin-sensitive and trimethoprim-resistant Staphylococcus epidermidis BAS000635 harboring dfrC and dfrA genes; format: functional
[30] = Oral bioavailability in NMRI mouse; format: ADME, organism-based; conditions: in vivo
[31] = test system: Staphylococcus epidermidis; experiment: Antibacterial activity against methicillin-sensitive dfrC, dfrA-positive and dfrD-negative Staphylococcus epidermidis; format: functional
Enterococcus faecium [32] = experiment: Antibacterial activity against Enterococcus faecium in presence of 50 ug/ml thymidine; format: functional
Staphylococcus aureus [33] = experiment: Antibacterial activity against trimethoprim-resistant Staphylococcus aureus BAS003908; format: functional
Enterococcus faecalis [34] = experiment: Antibacterial activity against Enterococcus faecalis in presence of 50 ug/ml thymidine; format: functional
Enterococcus faecium [35] = experiment: Antibacterial activity against Enterococcus faecium; format: functional
Staphylococcus aureus [36] = experiment: Antibacterial activity against methicillin-resistant dfrB, dfrG-positive and dfrA-negative Staphylococcus aureus; format: functional
Enterococcus faecium [37] = experiment: Antibacterial activity against vancomycin-sensitive dfrE, dfrF-negative and folA-positive Enterococcus faecium; format: functional
Staphylococcus aureus [38] = experiment: Antibacterial activity against trimethoprim-sensitive Staphylococcus aureus ATCC 29213 infected in NMRI mouse model of septicemia assessed as complete protection from infections at 3.1 mg/kg, iv; format: functional, organism-based; design: dose 3.1 mg/kg
[39] = Inhibition of trimethoprim-sensitive Staphylococcus aureus DfrB type dihydrofolate reductase
Enterococcus faecalis [40] = experiment: Antibacterial activity against vancomycin-sensitive folA, dfrF-negative Enterococcus faecalis harboring A5T, K88N, F102Y mutation in dfrE gene; format: functional
Staphylococcus aureus [41] = experiment: Antibacterial activity against methicillin-resistant dfrB, dfrA-positive and dfrA within SCCmec-N1, dfrG-negative Staphylococcus aureus; format: functional
Staphylococcus aureus [42] = experiment: Antibacterial activity against trimethoprim-resistant Staphylococcus aureus BAS003908 infected in NMRI mouse model of septicemia; format: functional
Enterococcus faecalis [43] = experiment: Antibacterial activity against vancomycin-sensitive dfrE, dfrF-positive and folA-negative Enterococcus faecalis; format: functional
[44] = AUC (0 to t) in NMRI mouse blood at 25 mg/kg administered through oral gavage after 7 hrs; format: ADME, organism-based; design: time < 7 hr, dose 25 mg/kg, route oral
[45] = Inhibition of trimethoprim-resistant Staphylococcus aureus Type S1 dihydrofolate reductase

COc1cc(Cc2cnc(N)nc2N)cc(/C=C/C(=O)N2N=Cc3ccccc3C2c2cnc(N(C)C)nc2)c1OC (centres undefined)
MIC (Haemophilus influenzae [1]): > 128 µg/mL | MIC (Streptococcus pneumoniae [2]): ≥ 128 µg/mL | Activity (Staphylococcus aureus [3]): inactive | Tmax [4]: 2 h | MIC (Staphylococcus aureus [5]): 1 µg/mL (≈ 1.77 µM) | Activity (Mus musculus [6]): < 10% | MIC (Streptococcus pneumoniae [7]): 32 µg/mL | MIC (Streptococcus pneumoniae [8]): ≥ 128 µg/mL | ED50 (Staphylococcus aureus [9]): 1.6 mg/kg | MIC [10]: 0.5 µg/mL (≈ 0.884 µM) | MIC [11]: 1 µg/mL (≈ 1.77 µM) | IC50 (Dihydrofolate reductase): 70.2 nM | MIC (Enterococcus faecium [12]): > 128 µg/mL | MIC (Staphylococcus aureus [13]): 1 µg/mL (≈ 1.77 µM) | MIC (Staphylococcus aureus [14]): 2 µg/mL (≈ 3.54 µM) | MIC (Haemophilus influenzae [15]): ≥ 128 µg/mL | Activity (Mus musculus [16]): 400 mg/kg | MIC (Enterococcus faecium [17]): ≥ 128 µg/mL | Activity (Mycobacterium avium): 77% | MIC [18]: < 0.25 µg/mL | IC50 (HeLa): 12000 nM | MIC (Staphylococcus aureus [19]): 0.5 µg/mL (≈ 0.884 µM) | MIC (Staphylococcus aureus [20]): 1 µg/mL (≈ 1.77 µM) | MIC (Enterococcus faecalis [21]): 1 µg/mL | MIC [22]: 0.25 µg/mL (≈ 0.442 µM) | MIC (Enterococcus faecium [23]): 2 µg/mL (≈ 3.54 µM) | Cmax [24]: 5390 ng/mL | MIC (Enterococcus faecalis [25]): 0.5 µg/mL (≈ 0.884 µM) | MIC (Staphylococcus aureus [26]): 1 µg/mL (≈ 1.77 µM) | MIC (Haemophilus influenzae [27]): 32 µg/mL | MIC [28]: 1 µg/mL (≈ 1.77 µM) | MIC [29]: 2 µg/mL (≈ 3.54 µM) | bioavailability [30]: 26% | MIC [31]: 1 µg/mL (≈ 1.77 µM) | MIC (Enterococcus faecium [32]): ≥ 128 µg/mL | MIC (Staphylococcus aureus [33]): 1 µg/mL (≈ 1.77 µM) | MIC (Enterococcus faecalis [34]): ≤ 0.25 µg/mL | MIC (Enterococcus faecium [35]): 2 µg/mL (≈ 3.54 µM) | MIC (Staphylococcus aureus [36]): 64 µg/mL (≈ 113 µM) | MIC (Enterococcus faecium [37]): ≤ 0.25 µg/mL | Activity (Staphylococcus aureus [38]): Active | IC50 [39]: 11.3 nM | MIC (Enterococcus faecalis [40]): 0.5 µg/mL (≈ 0.884 µM) | MIC (Staphylococcus aureus [41]): 1 µg/mL (≈ 1.77 µM) | MIC (Staphylococcus aureus [41]; Staphylococcus aureus, read-out: MIC): 2 µg/mL (≈ 3.54 µM) | ED50 (Staphylococcus aureus [42]): 3.1 mg/kg | MIC (Enterococcus faecalis [43]): > 128 µg/mL | AUC(0-t) at 7 h [44]: 23400 ng·h/mL

COc1ncc([C@@H]2c3ccccc3C=NN2C(=O)/C=C/c2cc(Cc3cnc(N)nc3N)cc(OC)c2OC)cn1
IC50 [45]: 1330 nM | IC50 (Dihydrofolate reductase): 1150 nM | MIC (Staphylococcus aureus [14]): > 8 µg/mL | MIC (Staphylococcus aureus [19]): 2 µg/mL (≈ 3.62 µM) | MIC (Staphylococcus aureus [20]): 1 µg/mL (≈ 1.81 µM) | MIC [22]: 0.5 µg/mL (≈ 0.905 µM) | MIC [29]: > 8 µg/mL | IC50 [39]: 12.5 nM

COc1ncc([C@H]2c3ccccc3C=NN2C(=O)/C=C/c2cc(Cc3cnc(N)nc3N)cc(OC)c2OC)cn1
IC50 [45]: 98.3 nM | IC50 (Dihydrofolate reductase): 13.5 nM | MIC (Staphylococcus aureus [14]): 2 µg/mL (≈ 3.62 µM) | MIC (Staphylococcus aureus [19]): 0.25 µg/mL (≈ 0.452 µM) | MIC (Staphylococcus aureus [20]): 0.125 µg/mL (≈ 0.226 µM) | MIC [22]: 0.06 µg/mL (≈ 0.109 µM) | MIC [29]: 1 µg/mL (≈ 1.81 µM) | IC50 [39]: 3.9 nM
